Data: patent US5395947A, “Platinum(II) complex and processes for preparing the same” (Sunkyong Industries, Ltd., priority 1991, dated 1995)

Key:
[1] = test system: murine leukemia L1210 cells; experiment: Growth inhibition test on cultured murine leukemia L1210 cells; assay type: cell-based; details: 48 hours, 37° C., Trypan blue viability
Method in brief: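 Read-out is Trypan blue (0.17%) viability versus compound-free controls. Cells, 1×10^5, were cultured 48 h at 37° C under 5% CO2 in RPMI 1640/10% FCS containing various compound concentrations.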

murine leukemia L1210 = experiment: Antitumor activity test on murine leukemia L1210 in vivo; design: species or system male BDF1 mice; details: days 1, 5, 9
Method in brief: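 Male BDF1 mice (6 weeks, 21±3 g; n=7) received 1×10^6 leukemia cells into the peritoneum on day 0, then test compound suspended or dissolved in 0.5% CMC i.p. on days 1, 5, 9. Activity expressed as T/C %, mean survival treated versus 0.5% CMC-injected controls.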

[2] = Test for water solubility; assay type: physicochemical; details: water
Text: 3. Test for water solubility
A standard plot of UV absorbance(220 nm) vs. concentration was made; and employed to determine water-solubility.
The mixture was then passed through a 0.45 micron disposable membrane filter before dilution and UV measurement.

ICR mice = experiment: Acute toxicity test; assay type: in vivo; design: Lethality: unit not given here; details: for Lethality: 10080 min
Method in brief: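 Single i.p. administration to ICR mice (7 weeks old, both sexes, n=6/group); appearance and mortality logged over 7 days, dead animals autopsied for gross pathology.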

NC[C@H]1OC2(CCCCC2)O[C@@H]1CN.O=C1C[O][Pt][O]1 [Example 4, (glycolato-O,O'){cyclohexanespiro-2'-[(4'R,5'R)-4',5'-bis(aminomethyl)-1',3'-dioxolane]}-platinum(II)]
IC50 (concentration required for 50% inhibition of growth) [1]: 0.08 µg/mL | T/C (%) (murine leukemia L1210; 3.1 mg/kg i.p.): 102% | T/C (%) (murine leukemia L1210; 6.2 mg/kg i.p.): 146% | T/C (%) (murine leukemia L1210; 12.5 mg/kg i.p.): 233% | T/C (%) (murine leukemia L1210; 25 mg/kg i.p.): 231% | T/C (%) (murine leukemia L1210; 50 mg/kg i.p.): toxic | Solubility in water [2]: 2900 µg/mL | Number of dead mice for 7 days (ICR mice; female, 25.0 mg/kg i.p.): 0/6 | Number of dead mice, 1st day (ICR mice; female, 25.0 mg/kg i.p.): 0/6 | Number of dead mice for 7 days (ICR mice; female, 32.5 mg/kg i.p.): 0/6 | Number of dead mice, 1st day (ICR mice; female, 32.5 mg/kg i.p.): 0/6 | Number of dead mice for 7 days (ICR mice; female, 42.3 mg/kg i.p.): 0/6 | Number of dead mice, 1st day (ICR mice; female, 42.3 mg/kg i.p.): 0/6 | Number of dead mice for 7 days (ICR mice; female, 55.0 mg/kg i.p.): 2/6 | Number of dead mice, 1st day (ICR mice; female, 55.0 mg/kg i.p.): 0/6 | Number of dead mice, 3rd day (ICR mice; female, 55.0 mg/kg i.p.): 1/6 | Number of dead mice, 4th day (ICR mice; female, 55.0 mg/kg i.p.): 1/5 | Lethality (ICR mice; female, 55.0 mg/kg i.p.): 33.3 | Number of dead mice for 7 days (ICR mice; female, 71.4 mg/kg i.p.): 4/6 | Number of dead mice, 1st day (ICR mice; female, 71.4 mg/kg i.p.): 0/6 | Number of dead mice, 2nd day (ICR mice; female, 71.4 mg/kg i.p.): 2/6 | Number of dead mice, 3rd day (ICR mice; female, 71.4 mg/kg i.p.): 1/4 | Number of dead mice, 4th day (ICR mice; female, 71.4 mg/kg i.p.): 1/3 | Lethality (ICR mice; female, 71.4 mg/kg i.p.): 66.7 | Number of dead mice for 7 days (ICR mice; male, 25.0 mg/kg i.p.): 0/6 | Number of dead mice, 1st day (ICR mice; male, 25.0 mg/kg i.p.): 0/6 | Number of dead mice for 7 days (ICR mice; male, 32.5 mg/kg i.p.): 0/6 | Number of dead mice, 1st day (ICR mice; male, 32.5 mg/kg i.p.): 0/6 | Number of dead mice for 7 days (ICR mice; male, 42.3 mg/kg i.p.): 0/6 | Number of dead mice, 1st day (ICR mice; male, 42.3 mg/kg i.p.): 0/6 | Number of dead mice for 7 days (ICR mice; male, 55.0 mg/kg i.p.): 3/6 | Number of dead mice, 1st day (ICR mice; male, 55.0 mg/kg i.p.): 0/6 | Number of dead mice, 2nd day (ICR mice; male, 55.0 mg/kg i.p.): 2/6 | Number of dead mice, 3rd day (ICR mice; male, 55.0 mg/kg i.p.): 1/4 | Lethality (ICR mice; male, 55.0 mg/kg i.p.): 50.0 | Number of dead mice for 7 days (ICR mice; male, 71.4 mg/kg i.p.): 4/6 | Number of dead mice, 1st day (ICR mice; male, 71.4 mg/kg i.p.): 0/6 | Number of dead mice, 2nd day (ICR mice; male, 71.4 mg/kg i.p.): 3/6 | Number of dead mice, 3rd day (ICR mice; male, 71.4 mg/kg i.p.): 1/3 | Lethality (ICR mice; male, 71.4 mg/kg i.p.): 66.7

CCC1OC2C[NH2+][Pt-2]3([NH2+]CC2O1)[O]C(=O)C1(CCC1)C(=O)[O]3 [Example 24, cis-cyclobutane-1,1-dicarboxylato[(4R,5R)-4,5-bis(aminomethyl)-2-ethyl-1,3-dioxolane]platinum(II)]
IC50 (concentration required for 50% inhibition of growth) [1]: 0.55 µg/mL | T/C (%) (murine leukemia L1210; 6.2 mg/kg i.p.): 122% | T/C (%) (murine leukemia L1210; 12.5 mg/kg i.p.): 130% | T/C (%) (murine leukemia L1210; 25 mg/kg i.p.): 193% | T/C (%) (murine leukemia L1210; 50 mg/kg i.p.): 208% | T/C (%) (murine leukemia L1210; 100 mg/kg i.p.): 391% | Solubility in water [2]: 12000 µg/mL | Number of dead mice for 7 days (ICR mice; female, 160 mg/kg i.p.): 0/6 | Number of dead mice, 1st day (ICR mice; female, 160 mg/kg i.p.): 0/6 | Number of dead mice for 7 days (ICR mice; female, 208 mg/kg i.p.): 0/6 | Number of dead mice, 1st day (ICR mice; female, 208 mg/kg i.p.): 0/6 | Number of dead mice for 7 days (ICR mice; female, 270 mg/kg i.p.): 3/6 | Number of dead mice, 1st day (ICR mice; female, 270 mg/kg i.p.): 0/6 | Number of dead mice, 2nd day (ICR mice; female, 270 mg/kg i.p.): 1/6 | Number of dead mice, 3rd day (ICR mice; female, 270 mg/kg i.p.): 1/5 | Number of dead mice, 5th day (ICR mice; female, 270 mg/kg i.p.): 1/4 | Lethality (ICR mice; female, 270 mg/kg i.p.): 50.0 | Number of dead mice for 7 days (ICR mice; female, 352 mg/kg i.p.): 5/6 | Number of dead mice, 1st day (ICR mice; female, 352 mg/kg i.p.): 0/6 | Number of dead mice, 3rd day (ICR mice; female, 352 mg/kg i.p.): 3/6 | Number of dead mice, 4th day (ICR mice; female, 352 mg/kg i.p.): 2/3 | Lethality (ICR mice; female, 352 mg/kg i.p.): 83.3 | Number of dead mice for 7 days (ICR mice; female, 457 mg/kg i.p.): 6/6 | Number of dead mice, 1st day (ICR mice; female, 457 mg/kg i.p.): 0/6 | Number of dead mice, 2nd day (ICR mice; female, 457 mg/kg i.p.): 4/6 | Number of dead mice, 3rd day (ICR mice; female, 457 mg/kg i.p.): 2/2 | Lethality (ICR mice; female, 457 mg/kg i.p.): 100.0 | Number of dead mice for 7 days (ICR mice; male, 160 mg/kg i.p.): 0/6 | Number of dead mice, 1st day (ICR mice; male, 160 mg/kg i.p.): 0/6 | Number of dead mice for 7 days (ICR mice; male, 208 mg/kg i.p.): 1/6 | Number of dead mice, 1st day (ICR mice; male, 208 mg/kg i.p.): 0/6 | Number of dead mice, 3rd day (ICR mice; male, 208 mg/kg i.p.): 1/6 | Lethality (ICR mice; male, 208 mg/kg i.p.): 16.7 | Number of dead mice for 7 days (ICR mice; male, 270 mg/kg i.p.): 5/6 | Number of dead mice, 1st day (ICR mice; male, 270 mg/kg i.p.): 0/6 | Number of dead mice, 2nd day (ICR mice; male, 270 mg/kg i.p.): 1/6 | Number of dead mice, 3rd day (ICR mice; male, 270 mg/kg i.p.): 2/5 | Number of dead mice, 4th day (ICR mice; male, 270 mg/kg i.p.): 1/3 | Number of dead mice, 5th day (ICR mice; male, 270 mg/kg i.p.): 1/2 | Lethality (ICR mice; male, 270 mg/kg i.p.): 83.3 | Number of dead mice for 7 days (ICR mice; male, 352 mg/kg i.p.): 6/6 | Number of dead mice, 1st day (ICR mice; male, 352 mg/kg i.p.): 1/6 | Number of dead mice, 2nd day (ICR mice; male, 352 mg/kg i.p.): 2/5 | Number of dead mice, 3rd day (ICR mice; male, 352 mg/kg i.p.): 2/3 | Number of dead mice, 6th day (ICR mice; male, 352 mg/kg i.p.): 1/1 | Lethality (ICR mice; male, 352 mg/kg i.p.): 100.0 | Number of dead mice for 7 days (ICR mice; male, 457 mg/kg i.p.): 6/6 | Number of dead mice, 1st day (ICR mice; male, 457 mg/kg i.p.): 0/6 | Number of dead mice, 2nd day (ICR mice; male, 457 mg/kg i.p.): 2/6 | Number of dead mice, 3rd day (ICR mice; male, 457 mg/kg i.p.): 4/6 | Lethality (ICR mice; male, 457 mg/kg i.p.): 100.0

O=C1[O][Pt-2]2([NH2+]CC3OC4(CCCC4)OC3C[NH2+]2)[O]C(=O)C12CCC2 [Example 30, cis-cyclobutane-1,1-dicarboxylato[(4R,5R)-4,5-bis(aminomethyl)-1,3-dioxolane-2-spiro-1'-cyclopentane]platinum(II)]
IC50 (concentration required for 50% inhibition of growth) [1]: 0.55 µg/mL | T/C (%) (murine leukemia L1210; 6.2 mg/kg i.p.): 109% | T/C (%) (murine leukemia L1210; 12.5 mg/kg i.p.): 122% | T/C (%) (murine leukemia L1210; 25 mg/kg i.p.): 110% | T/C (%) (murine leukemia L1210; 50 mg/kg i.p.): 148% | T/C (%) (murine leukemia L1210; 100 mg/kg i.p.): 185% | Solubility in water [2]: 1900 µg/mL | Number of dead mice for 7 days (ICR mice; female, 94 mg/kg i.p.): 0/6 | Number of dead mice, 1st day (ICR mice; female, 94 mg/kg i.p.): 0/6 | Number of dead mice for 7 days (ICR mice; female, 123 mg/kg i.p.): 0/6 | Number of dead mice, 1st day (ICR mice; female, 123 mg/kg i.p.): 0/6 | Number of dead mice for 7 days (ICR mice; female, 160 mg/kg i.p.): 1/6 | Number of dead mice, 1st day (ICR mice; female, 160 mg/kg i.p.): 0/6 | Number of dead mice, 5th day (ICR mice; female, 160 mg/kg i.p.): 1/6 | Lethality (ICR mice; female, 160 mg/kg i.p.): 16.7 | Number of dead mice for 7 days (ICR mice; female, 208 mg/kg i.p.): 4/6 | Number of dead mice, 1st day (ICR mice; female, 208 mg/kg i.p.): 0/6 | Number of dead mice, 3rd day (ICR mice; female, 208 mg/kg i.p.): 2/6 | Number of dead mice, 4th day (ICR mice; female, 208 mg/kg i.p.): 2/4 | Lethality (ICR mice; female, 208 mg/kg i.p.): 66.7 | Number of dead mice for 7 days (ICR mice; female, 270 mg/kg i.p.): 6/6 | Number of dead mice, 1st day (ICR mice; female, 270 mg/kg i.p.): 0/6 | Number of dead mice, 2nd day (ICR mice; female, 270 mg/kg i.p.): 4/6 | Number of dead mice, 3rd day (ICR mice; female, 270 mg/kg i.p.): 2/2 | Lethality (ICR mice; female, 270 mg/kg i.p.): 100.0 | Number of dead mice for 7 days (ICR mice; male, 94 mg/kg i.p.): 0/6 | Number of dead mice, 1st day (ICR mice; male, 94 mg/kg i.p.): 0/6 | Number of dead mice for 7 days (ICR mice; male, 123 mg/kg i.p.): 0/6 | Number of dead mice, 1st day (ICR mice; male, 123 mg/kg i.p.): 1/6 | Number of dead mice for 7 days (ICR mice; male, 160 mg/kg i.p.): 1/6 | Number of dead mice, 1st day (ICR mice; male, 160 mg/kg i.p.): 0/6 | Number of dead mice, 4th day (ICR mice; male, 160 mg/kg i.p.): 1/6 | Lethality (ICR mice; male, 160 mg/kg i.p.): 16.7 | Number of dead mice for 7 days (ICR mice; male, 208 mg/kg i.p.): 5/6 | Number of dead mice, 1st day (ICR mice; male, 208 mg/kg i.p.): 1/6 | Number of dead mice, 2nd day (ICR mice; male, 208 mg/kg i.p.): 1/6 | Number of dead mice, 3rd day (ICR mice; male, 208 mg/kg i.p.): 3/5 | Lethality (ICR mice; male, 208 mg/kg i.p.): 83.3 | Number of dead mice for 7 days (ICR mice; male, 270 mg/kg i.p.): 6/6 | Number of dead mice, 1st day (ICR mice; male, 270 mg/kg i.p.): 0/6 | Number of dead mice, 2nd day (ICR mice; male, 270 mg/kg i.p.): 2/6 | Number of dead mice, 3rd day (ICR mice; male, 270 mg/kg i.p.): 4/4 | Lethality (ICR mice; male, 270 mg/kg i.p.): 100.0
